Patent publication US12129312B2, “Peptide compound, application thereof and composition containing same” (priority 2017, dated 2024)
Square brackets hold non-standard residues; d marks the D form. Peptide text beside a SMILES is read from it. * marks the point of attachment. Hydrocinnamoyl = O=C(CCc1ccccc1)*; Tic = O=C(O)[C@@H]1Cc2ccccc2CN1; NMeL = CN[C@@H](CC(C)C)C(=O)O

Assay: Plasma stability, rat plasma
Assay type: in vitro ADME
Conditions: 37° C., time points 0 minute, 1, 2 and 4 hours, LC-MS/MS, read-out: Rat plasma (T1/2 (h)) (converted)
Description: 1. Preparation of 50 mM Phosphate Buffer (50 mM Sodium Phosphate and 70 mM NaCl):
5.750 g of Na2HPO4, 1.141 g of NaH2PO4 and 4.095 g of NaCl (Shanghai Titan) were weighed and dissolved in 1000 mL of ultrapure water and the pH was adjusted to 7.4. The prepared phosphate buffer was stored in the refrigerator at 4° C., valid for one week.
2. Preparation of Compound Stock Solution:
1) 5 mg/mL test compound: 5 mg of compound was weighed and dissolved in 1 mL of DMSO.
2) 20 mM control: 2.728 mg of nococaine was dissolved in 0.5 mL of DMSO. 3.878 mg of fenfluramide was dissolved in 0.5 mL of DMSO (Amresco).
3. Preparation of Experimental Plasma:
The frozen plasma (human: Shanghai ChemPartner, Rat, Mouse: Shanghai Xipuer-Beikai, Dog, Monkey: Suzhou Xishan Zhongke) was taken out from the −80° C. refrigerator, immediately placed in a 37° C. water bath, and thawn with gentle shaking. The thawed plasma was poured into a centrifuge tube, and centrifuged at 3000 rpm for 8 minutes. The supernatant was collected for the experiment. The pH of the plasma was measured with a pH meter (METTLER TOLEDO), and only the plasma with a pH between 7.4 and 8 was used for the experiment. The plasma was placed on an ice bath for later use.
4. Preparation of the Dosing Solution: […]

SMILES	half-life at 500 ng/mL
CC(C)C[C@H](NC(=O)[C@H](Cc1ccccc1)NC(=O)[C@H](N)Cc1ccc(O)cc1)C(=O)N1CCC[C@H]1C(=O)N[C@H](CO)C(=O)N[C@@H](CCC(N)=O)C(=O)N[C@@H](Cc1ccccc1)C(=O)N[C@H](C)C(=O)N1Cc2ccccc2C[C@H]1C(=O)N[C@@H](CO)C(=O)O [YW-3, (D-Tyr)-Phe-Leu-Pro-(D-Ser)-Gln-Phe-(D-Ala)-Tic-Ser, reference compound] (H-[dY]FLP[dS]QF[dA][Tic]S-OH)	11.7 h
CC(C)C[C@@H](C(=O)N1CCC[C@H]1C(=O)N[C@H](CO)C(=O)N[C@@H](CCC(N)=O)C(=O)N[C@@H](Cc1ccccc1)C(=O)N[C@H](C)C(=O)N1Cc2ccccc2C[C@H]1C(=O)N[C@@H](CO)C(=O)O)N(C)C(=O)[C@H](Cc1ccccc1)NC(=O)[C@@H](Cc1ccc(O)cc1)NC(=O)CCc1ccccc1 [YW-111, 3-phenylpropanoyl-(D-Tyr)-Phe-(NMe-Leu)-Pro-(D-Ser)-Gln-Phe-(D-Ala)-Tic-Ser-OH] (Hydrocinnamoyl-[dY]F[NMeL]P[dS]QF[dA][Tic]S-OH)	> 71 h
